From patent US10576062B2, “Carbamoyloxymethyl triazole cyclohexyl acids as LPA antagonists” (Bristol-Myers Squibb Company, priority 2016, dated 2020)

molecular target: T1, human LPA1 (Homo sapiens, UniProt Q92633); assay: LPA1 functional antagonist assay (LPA-induced calcium flux); format: cell-based; settings: read-out: hLPA1 IC50
T1 construct: expressed in transfected cells; host or cells: Chinese hamster ovary (CHO) cells
In short: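 CHO cells overexpressing human LPA1, loaded with calcium dye 30 min at 37° C, were preincubated 20 min at room temperature with compound (0.08 nM–5 μM, 0.5% DMSO) in HBSS/20 mM HEPES/0.1% fatty acid-free BSA.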

T1 sequence (Q92633 whole entry): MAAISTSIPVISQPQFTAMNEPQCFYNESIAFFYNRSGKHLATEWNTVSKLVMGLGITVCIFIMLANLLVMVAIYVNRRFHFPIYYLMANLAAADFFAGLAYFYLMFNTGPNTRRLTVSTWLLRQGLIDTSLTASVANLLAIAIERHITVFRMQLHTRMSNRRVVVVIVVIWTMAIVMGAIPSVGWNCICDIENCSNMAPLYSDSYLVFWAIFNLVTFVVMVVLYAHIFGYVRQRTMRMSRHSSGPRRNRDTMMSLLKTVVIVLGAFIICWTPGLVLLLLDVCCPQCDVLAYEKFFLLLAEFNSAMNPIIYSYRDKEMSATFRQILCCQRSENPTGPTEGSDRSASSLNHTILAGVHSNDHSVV

| SMILES | IC50 |
| --- | --- |
| Cc1nc(-c2nnn(C)c2COC(=O)N(C)Cc2cnccn2)ccc1O[C@H]1CCC[C@H](C(=O)O)C1 [Example 123, (1S,3S)-3-((2-methyl-6-(1-methyl-5-(((methyl(pyrazin-2-ylmethyl)carbamoyl)oxy)methyl)-1H-1,2,3-triazol-4-yl)pyridin-3-yl)oxy)cyclohexane-1-carboxylic acid] | 618 nM |
| Cc1nc(-c2nnn(C)c2COC(=O)N(C)Cc2ccnn2C)ccc1O[C@H]1CCC[C@H](C(=O)O)C1 [Example 124, (1S,3S)-3-((2-methyl-6-(1-methyl-5-(((methyl((1-methyl-1H-pyrazol-5-yl)methyl)carbamoyl)oxy)methyl)-1H-1,2,3-triazol-4-yl)pyridin-3-yl)oxy)cyclohexane-1-carboxylic acid] | 982 nM |
| Cc1nc(-c2nnn(C)c2COC(=O)N(C)CC2COCCN2)ccc1O[C@H]1CCC[C@H](C(=O)O)C1 (stereo partly drawn) [Example 125, (1S,3S)-3-((2-methyl-6-(1-methyl-5-(((methyl(morpholin-3-ylmethyl)carbamoyl)oxy)methyl)-1H-1,2,3-triazol-4-yl)pyridin-3-yl)oxy)cyclohexane-1-carboxylic acid] | 668 nM |
| Cc1nc(-c2nnn(C)c2COC(=O)N(C)CC2CCOC2)ccc1O[C@H]1CCC[C@H](C(=O)O)C1 (stereo partly drawn) [Example 126, (1S,3S)-3-((2-methyl-6-(1-methyl-5-(((methyl((tetrahydrofuran-3-yl)methyl)carbamoyl)oxy)methyl)-1H-1,2,3-triazol-4-yl)pyridin-3-yl)oxy)cyclohexane-1-carboxylic acid] | 346 nM |
| CCCCN(CC)C(=O)OCc1c(-c2ccc(O[C@H]3CCC[C@H](C(=O)O)C3)c(C)n2)nnn1C [Example 127, (1S,3S)-3-((6-(5-(((butyl(ethyl)carbamoyl)oxy)methyl)-1-methyl-1H-1,2,3-triazol-4-yl)-2-methylpyridin-3-yl)oxy)cyclohexane-1-carboxylic acid] | 33 nM |
| CCCN(CC)C(=O)OCc1c(-c2ccc(O[C@H]3CCC[C@H](C(=O)O)C3)c(C)n2)nnn1C [Example 128, (1S,3S)-3-((6-(5-(((ethyl(propyl)carbamoyl)oxy)methyl)-1-methyl-1H-1,2,3-triazol-4-yl)-2-methylpyridin-3-yl)oxy)cyclohexane-1-carboxylic acid] | 158 nM |
| Cc1nc(-c2nnn(C)c2COC(=O)N(C)C2(C(C)C)CC2)ccc1O[C@H]1CCC[C@H](C(=O)O)C1 [Example 129, (1S,3S)-3-((6-(5-((((1-isopropylcyclopropyl)(methyl)carbamoyl)oxy)methyl)-1-methyl-1H-1,2,3-triazol-4-yl)-2-methylpyridin-3-yl)oxy)cyclohexane-1-carboxylic acid] | 352 nM |
| Cc1nc(-c2nnn(C)c2COC(=O)N(C)C2(CC(C)C)CC2)ccc1O[C@H]1CCC[C@H](C(=O)O)C1 [Example 130, (1S,3S)-3-((6-(5-((((1-isobutylcyclopropyl)(methyl)carbamoyl)oxy)methyl)-1-methyl-1H-1,2,3-triazol-4-yl)-2-methylpyridin-3-yl)oxy)cyclohexane-1-carboxylic acid] | 243 nM |
| CCC1(N(C)C(=O)OCc2c(-c3ccc(O[C@H]4CCC[C@H](C(=O)O)C4)c(C)n3)nnn2C)CC1 [Example 131, (1S,3S)-3-((6-(5-((((1-ethylcyclopropyl)(methyl)carbamoyl)oxy)methyl)-1-methyl-1H-1,2,3-triazol-4-yl)-2-methylpyridin-3-yl)oxy)cyclohexane-1-carboxylic acid] | 187 nM |
| CCCC1(N(C)C(=O)OCc2c(-c3ccc(O[C@H]4CCC[C@H](C(=O)O)C4)c(C)n3)nnn2C)CCC1 [Example 132, (1S,3S)-3-((2-methyl-6-(1-methyl-5-(((methyl(1-propylcyclobutyl)carbamoyl)oxy)methyl)-1H-1,2,3-triazol-4-yl)pyridin-3-yl)oxy)cyclohexane-1-carboxylic acid] | 180 nM |
| CCC1(N(C)C(=O)OCc2c(-c3ccc(O[C@H]4CCC[C@H](C(=O)O)C4)c(C)n3)nnn2C)CCC1 [Example 133, (1S,3S)-3-((6-(5-((((1-ethylcyclobutyl)(methyl)carbamoyl)oxy)methyl)-1-methyl-1H-1,2,3-triazol-4-yl)-2-methylpyridin-3-yl)oxy)cyclohexane-1-carboxylic acid] | 174 nM |
| Cc1nc(-c2nnn(C)c2COC(=O)N2CC3(CCC3)C2)ccc1O[C@H]1CCC[C@H](C(=O)O)C1 [Example 134, (1S,3S)-3-((6-(5-(((2-azaspiro[3.3]heptane-2-carbonyl)oxy)methyl)-1-methyl-1H-1,2,3-triazol-4-yl)-2-methylpyridin-3-yl)oxy)cyclohexane-1-carboxylic acid] | 76 nM |
| Cc1nc(-c2nnn(C)c2COC(=O)N2CCC3(CCC3)C2)ccc1O[C@H]1CCC[C@H](C(=O)O)C1 [Example 135, (1S,3S)-3-((6-(5-(((6-azaspiro[3.4]octane-6-carbonyl)oxy)methyl)-1-methyl-1H-1,2,3-triazol-4-yl)-2-methylpyridin-3-yl)oxy)cyclohexane-1-carboxylic acid] | 47 nM |
| Cc1nc(-c2nnn(C)c2COC(=O)N(C)C2CCC2)ccc1O[C@H]1CCC[C@H](C(=O)O)C1 [Example 136, (1S,3S)-3-((6-(5-(((cyclobutyl(methyl)carbamoyl)oxy)methyl)-1-methyl-1H-1,2,3-triazol-4-yl)-2-methylpyridin-3-yl)oxy)cyclohexane-1-carboxylic acid] | 36 nM |
| Cc1nc(-c2nnn(C)c2COC(=O)N2CCCC(C)(C)C2)ccc1O[C@H]1CCC[C@H](C(=O)O)C1 [Example 137, (1S,3S)-3-((6-(5-(((3,3-dimethylpiperidine-1-carbonyl)oxy)methyl)-1-methyl-1H-1,2,3-triazol-4-yl)-2-methylpyridin-3-yl)oxy)cyclohexane-1-carboxylic acid] | 292 nM |
| Cc1nc(-c2nnn(C)c2COC(=O)N(C)C(C)C)ccc1O[C@H]1CCC[C@H](C(=O)O)C1 [Example 138] | 98 nM |
| Cc1nc(-c2nnn(C)c2COC(=O)N(C)C2CC(F)(F)C2)ccc1O[C@H]1CCC[C@H](C(=O)O)C1 [Example 139, (1S,3S)-3-((6-(5-((((3,3-difluorocyclobutyl)(methyl)carbamoyl)oxy)methyl)-1-methyl-1H-1,2,3-triazol-4-yl)-2-methylpyridin-3-yl)oxy)cyclohexane-1-carboxylic acid] | 70 nM |
| Cc1nc(-c2nnn(C)c2COC(=O)N2CCC(C)(C)C2)ccc1O[C@H]1CCC[C@H](C(=O)O)C1 [Example 140, (1S,3S)-3-((6-(5-(((3,3-dimethylpyrrolidine-1-carbonyl)oxy)methyl)-1-methyl-1H-1,2,3-triazol-4-yl)-2-methylpyridin-3-yl)oxy)cyclohexane-1-carboxylic acid] | 148 nM |
| Cc1nc(-c2nnn(C)c2COC(=O)N(C)C2CC(F)(F)C2)ccc1O[C@H]1CCC[C@@H](C(=O)O)C1 [Example 141, (1R,3S)-3-((6-(5-((((3,3-difluoro-cyclobutyl)(methyl)carbamoyl)oxy)methyl)-1-methyl-1H-1,2,3-triazol-4-yl)-2-methylpyridin-3-yl)oxy)cyclohexane-1-carboxylic acid] | 283 nM |
| Cc1nc(-c2nnn(C)c2COC(=O)N(C)C2CC2)ccc1O[C@H]1CCC[C@H](C(=O)O)C1 [Example 142, (1S,3S)-3-((6-(5-(((cyclopropyl(methyl)carbamoyl)oxy)methyl)-1-methyl-1H-1,2,3-triazol-4-yl)-2-methylpyridin-3-yl)oxy)cyclohexane-1-carboxylic acid] | 252 nM |
| Cc1nc(-c2nnn(C)c2COC(=O)N2CCC(F)(F)C2)ccc1O[C@H]1CCC[C@H](C(=O)O)C1 [Example 143, (1S,3S)-3-((6-(5-(((3,3-difluoro-pyrrolidine-1-carbonyl)oxy)methyl)-1-methyl-1H-1,2,3-triazol-4-yl)-2-methylpyridin-3-yl)oxy)cyclohexane-1-carboxylic acid] | 518 nM |
| Cc1nc(-c2nnn(C)c2COC(=O)N2CCC3(CC3)C2)ccc1O[C@H]1CCC[C@H](C(=O)O)C1 [Example 144, (1S,3S)-3-((6-(5-(((5-azaspiro[2.4]heptane-5-carbonyl)oxy)methyl)-1-methyl-1H-1,2,3-triazol-4-yl)-2-methylpyridin-3-yl)oxy)cyclohexane-1-carboxylic acid] | 89 nM |
| Cc1nc(-c2nnn(C)c2COC(=O)N(C)CC2CC(F)(F)C2)ccc1O[C@H]1CCC[C@H](C(=O)O)C1 [Example 145, (1S,3S)-3-((6-(5-(((((3,3-difluoro-cyclobutyl)methyl)(methyl)carbamoyl)oxy)methyl)-1-methyl-1H-1,2,3-triazol-4-yl)-2-methylpyridin-3-yl)oxy)cyclohexane-1-carboxylic acid] | 94 nM |
| Cc1nc(-c2nnn(C)c2COC(=O)N(C)C2CC23CCC3)ccc1O[C@H]1CCC[C@@H](C(=O)O)C1 (stereo partly drawn) [Example 146, (1R,3S)-3-((2-methyl-6-(1-methyl-5-(((methyl(spiro[2.3]hexan-1-yl)carbamoyl)oxy)methyl)-1H-1,2,3-triazol-4-yl)pyridin-3-yl)oxy)cyclohexane-1-carboxylic acid] | 1820 nM |
| Cc1nc(-c2nnn(C)c2COC(=O)N2CC3CCC2C3)ccc1O[C@H]1CCC[C@H](C(=O)O)C1 (stereo partly drawn) [Example 148, (1S,3S)-3-((6-(5-(((-2-azabicyclo[2.2.1]heptane-2-carbonyl)oxy)methyl)-1-methyl-1H-1,2,3-triazol-4-yl)-2-methylpyridin-3-yl)oxy)cyclohexane-1-carboxylic acid] | 325 nM |
| Cc1nc(-c2nnn(C)c2COC(=O)N2CCC3CCCC32)ccc1O[C@H]1CCC[C@H](C(=O)O)C1 (stereo partly drawn) [Example 149, (1S,3S)-3-((2-methyl-6-(1-methyl-5-(((octahydrocyclopenta[b]pyrrole-1-carbonyl)oxy)methyl)-1H-1,2,3-triazol-4-yl)pyridin-3-yl)oxy)cyclohexane-1-carboxylic acid] | 180 nM |
